Experimental data reported in patent US7348427B2, “Antipathogenic benzamide compounds” (Genesoft Pharmaceuticals, Inc., priority 2001, dated 2008).

Assays:
[1] = test system: S. pneumoniae ATCC 49619; assay: MIC, NCCLS broth microdilution assay; type: cell-based, Streptococcus pneumoniae; conditions: H = S. pneumoniae ATCC 49619
Procedure, shortened: (§1)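 Broth microdilution per NCCLS M7-A4 (1997) guidelines; MIC recorded as minimal inhibitory concentration.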

[2] = test system: E. faecalis ATCC 29212; assay: MIC, NCCLS broth microdilution assay; type: cell-based, Enterococcus faecalis; conditions: C = E. faecalis ATCC 29212
Procedure, shortened: as §1

[3] = test system: Candida albicans (ATCC 38247); assay: Antifungal MIC assay; type: cell-based; conditions: B = C. albicans ATCC 38247
Procedure, shortened: (§2)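 MICs were determined by broth microdilution following NCCLS documents M7-A4, M11-A4 and M27-T. The antifungal assay followed the method in the Manual of Clinical Microbiology (1995).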

[4] = test system: Staphylococcus aureus (ATCC 13709, a methicillin sensitive strain (MSSA)); assay: MIC, NCCLS broth microdilution assay; type: cell-based; conditions: E = S. aureus ATCC 13709
Procedure, shortened: as §2

[5] = test system: Staphylococcus epidermidis (ATCC 12228); assay: MIC, NCCLS broth microdilution assay; type: cell-based; conditions: G = S. epidermidis ATCC 12228
Procedure, shortened: as §2

[6] = test system: Staphylococcus aureus (ATCC 27660, a methicillin resistant strain (MRSA)); assay: MIC, NCCLS broth microdilution assay; type: cell-based; conditions: F = S. aureus ATCC 27660
Procedure, shortened: as §2

[7] = test system: Enterococcus faecium (ATCC 51559, a vancomycin resistant strain (VRE)); assay: MIC, NCCLS broth microdilution assay; type: cell-based; conditions: D = E. faecium ATCC 51559
Procedure, shortened: as §2

[8] = test system: Bacillus cereus (ATCC 11778); assay: MIC, NCCLS broth microdilution assay; type: cell-based; conditions: A = B. cereus ATCC 11778
Procedure, shortened: as §2

[9] = test system: Streptococcus pneumoniae (ATCC 51422, a penicillin resistant strain (PRSP)); assay: MIC, NCCLS broth microdilution assay; type: cell-based; conditions: I = S. pneumoniae ATCC 51422
Procedure, shortened: as §2

[10] = test system: methicillin resistant Staphylococcus aureus ATCC 33591; assay: Murine neutropenic thigh model; type: in vivo; conditions: neutropenic female CF1 mice, 50 mg/kg intravenously two hours post infection, 6 hr after treatment
Procedure: A S. aureus ATCC 33591 culture was grown to log phase overnight and diluted in phosphate buffered saline (pH 7.2) to an optical density of about 0.1 at 600 nm, giving an approximate concentration of 10^8 cfu/mL. The suspension was diluted 1:100 in phosphate buffered saline (pH 7.2) for a final concentration of 10^6 cfu/mL.
Outbred female CF1 mice (approx. 20 gram body weight) were rendered neutropenic by treatment with cyclophosphamide (200 mg/kg body weight, intraperitoneal injection) at 2 and 4 days prior to inoculation. Groups of 5 mice were inoculated with 0.05 mL of the bacteria (approx. 10^6 cfu/mL) into the anterior thigh. Each group was treated intravenously two hours post infection with vehicle (phosphate buffered saline) or test compound. The mice were sacrificed at either 6 or 24 hrs after treatment and thighs were collected aseptically. Each thigh was weighed, placed into sterile saline, and homogenized. The tissue homogenates were diluted appropriately for plating on agar plates. Colony counts were recorded (cfu/gram) and compared to control groups.
In vivo efficacy was shown by a decrease in colony count (log cfu/gram of tissue) in the compound-treated animals when compared against the colony count in animals given only the vehicle.

Compound	Minimum Inhibitory Concentration (MIC) [1]	Minimum Inhibitory Concentration (MIC) [2]	Minimum Inhibitory Concentration (MIC) [3]	Minimum Inhibitory Concentration (MIC) [4]	Minimum Inhibitory Concentration (MIC) [5]	Minimum Inhibitory Concentration (MIC) [6]	Minimum Inhibitory Concentration (MIC) [7]	Minimum Inhibitory Concentration (MIC) [8]	Minimum Inhibitory Concentration (MIC) [9]	Colony Count (log cfu/gram) Compound [10]
Cn1cc(NC(=O)c2cc(NC(=O)c3cc(NC(=O)c4ccc(Cl)cc4F)cn3C)cn2C)cc1C(=O)NCCN1CCSCC1 [Compound B-49]	+++ (+++ = MIC ≦ 4)	+++ (+++ = MIC ≦ 4)	>32 µg/mL	+++ (+++ = MIC ≦ 4)	+++ (+++ = MIC ≦ 4)	+++ (+++ = MIC ≦ 4)	+++ (+++ = MIC ≦ 4)	+++ (+++ = MIC ≦ 4)	+++ (+++ = MIC ≦ 4)	
Cn1cc(NC(=O)c2cc(NC(=O)c3cc(NC(=O)c4ccc(Cl)c(Cl)c4)cn3C)cn2C)cc1C(=O)NCCN1CCOCC1 [Compound B-53]	+++ (+++ = MIC ≦ 4)	+++ (+++ = MIC ≦ 4)	>32 µg/mL	+++ (+++ = MIC ≦ 4)	+++ (+++ = MIC ≦ 4)	+++ (+++ = MIC ≦ 4)	+++ (+++ = MIC ≦ 4)	+++ (+++ = MIC ≦ 4)	+++ (+++ = MIC ≦ 4)	
Cn1cc(NC(=O)c2cc(NC(=O)c3cc(NC(=O)c4ccc(Cl)cc4)cn3C)cn2C)cc1C(=O)NCCN1CCSCC1 [Compound B-58]	+++ (+++ = MIC ≦ 4)	+++ (+++ = MIC ≦ 4)	>32 µg/mL	+++ (+++ = MIC ≦ 4)	++ (++ = 4 < MIC < 12)	+++ (+++ = MIC ≦ 4)	+ (+ = 12 ≦ MIC ≦ 32)	+++ (+++ = MIC ≦ 4)	+++ (+++ = MIC ≦ 4)	
Cn1cc(NC(=O)c2cc(NC(=O)c3cc(NC(=O)c4ccc(Cl)cc4NCCN4CCCCC4)cn3C)cn2C)cc1C(=O)NCCN1CCCCC1 [Compound B-64]	+++ (+++ = MIC ≦ 4)	+++ (+++ = MIC ≦ 4)	+++ (+++ = MIC ≦ 4)	+++ (+++ = MIC ≦ 4)	+++ (+++ = MIC ≦ 4)	+++ (+++ = MIC ≦ 4)	+++ (+++ = MIC ≦ 4)	+++ (+++ = MIC ≦ 4)	+++ (+++ = MIC ≦ 4)	
Cn1cc(NC(=O)c2cc(NC(=O)c3cc(NC(=O)c4ccc(C#N)cc4)cn3C)cn2C)cc1C(=O)NCCN1CCOCC1 [Compound B-67]	+++ (+++ = MIC ≦ 4)	+++ (+++ = MIC ≦ 4)	>32 µg/mL					+++ (+++ = MIC ≦ 4)		7.73 log cfu/gram
Cn1cc(NC(=O)c2cc(NC(=O)c3cc(NC(=O)c4ccc(C#N)cc4)cn3C)cn2C)cc1C(=O)NCCN1CCSCC1 [Compound B-68]	+++ (+++ = MIC ≦ 4)	+++ (+++ = MIC ≦ 4)	>32 µg/mL	+++ (+++ = MIC ≦ 4)	+++ (+++ = MIC ≦ 4)	+++ (+++ = MIC ≦ 4)	+++ (+++ = MIC ≦ 4)	+++ (+++ = MIC ≦ 4)	+++ (+++ = MIC ≦ 4)	
Cn1cc(NC(=O)c2cc(NC(=O)c3ccc(Cl)cc3F)c[nH]2)cc1C(=O)Nc1cc(C(=O)NCCN2CCCCC2)n(CCCO)c1 [Compound C-9]	+++ (+++ = MIC ≦ 4)	+++ (+++ = MIC ≦ 4)	+++ (+++ = MIC ≦ 4)	+++ (+++ = MIC ≦ 4)	+++ (+++ = MIC ≦ 4)	+++ (+++ = MIC ≦ 4)	+++ (+++ = MIC ≦ 4)	+++ (+++ = MIC ≦ 4)	+++ (+++ = MIC ≦ 4)	
CN(C)CCCn1cc(NC(=O)c2cc(NC(=O)c3cc(NC(=O)c4ccc(F)cc4F)cn3C)cn2C)cc1C(=O)NCCN1CCCCC1 [Compound D-2]	+++ (+++ = MIC ≦ 4)	+++ (+++ = MIC ≦ 4)	+ (+ = 12 ≦ MIC ≦ 32)	+ (+ = 12 ≦ MIC ≦ 32)	+++ (+++ = MIC ≦ 4)	+++ (+++ = MIC ≦ 4)	+++ (+++ = MIC ≦ 4)	+++ (+++ = MIC ≦ 4)	+++ (+++ = MIC ≦ 4)	
Cc1cc(NC(=O)c2cc(NC(=O)c3cc(NC(=O)c4ccc(Cl)cc4F)cn3C)cn2CCN2CCOCC2)sn1 [Compound D-8]	+++ (+++ = MIC ≦ 4)	+++ (+++ = MIC ≦ 4)	>32 µg/mL	+++ (+++ = MIC ≦ 4)	+++ (+++ = MIC ≦ 4)	+++ (+++ = MIC ≦ 4)	+++ (+++ = MIC ≦ 4)	+++ (+++ = MIC ≦ 4)	+++ (+++ = MIC ≦ 4)	
Cc1cc(NC(=O)c2cc(NC(=O)c3cc(NC(=O)c4ccc(Cl)cc4F)c[nH]3)cn2CCN2CCOCC2)sn1 [Compound D-9]	+++ (+++ = MIC ≦ 4)	+++ (+++ = MIC ≦ 4)	>32 µg/mL	+++ (+++ = MIC ≦ 4)	+++ (+++ = MIC ≦ 4)	+++ (+++ = MIC ≦ 4)	+++ (+++ = MIC ≦ 4)	+++ (+++ = MIC ≦ 4)	+++ (+++ = MIC ≦ 4)	
Cc1cc(NC(=O)c2cc(NC(=O)c3cc(NC(=O)c4ccc(Cl)cc4F)c[nH]3)cn2CCN2CCCC2)sn1 [Compound D-10]	+++ (+++ = MIC ≦ 4)	+++ (+++ = MIC ≦ 4)	++ (++ = 4 < MIC < 12)	+++ (+++ = MIC ≦ 4)	+++ (+++ = MIC ≦ 4)	+ (+ = 12 ≦ MIC ≦ 32)	+++ (+++ = MIC ≦ 4)	+++ (+++ = MIC ≦ 4)	+++ (+++ = MIC ≦ 4)	
Cc1cc(NC(=O)c2cc(NC(=O)c3cc(NC(=O)c4ccc(Cl)cc4F)cn3C)cn2CCCN(C)C)sn1 [Compound D-12]	+++ (+++ = MIC ≦ 4)	+++ (+++ = MIC ≦ 4)	+++ (+++ = MIC ≦ 4)	+++ (+++ = MIC ≦ 4)	+++ (+++ = MIC ≦ 4)	+++ (+++ = MIC ≦ 4)	++ (++ = 4 < MIC < 12)	+++ (+++ = MIC ≦ 4)	+++ (+++ = MIC ≦ 4)	
Cn1cc(NC(=O)c2cc(NC(=O)c3ccc(Cl)cc3F)c[nH]2)cc1C(=O)Nc1cc(C(=O)NCCN2CCCCC2)n(CCN2CCOCC2)c1 [Compound D-13]	+++ (+++ = MIC ≦ 4)	+++ (+++ = MIC ≦ 4)	+ (+ = 12 ≦ MIC ≦ 32)	+++ (+++ = MIC ≦ 4)	+++ (+++ = MIC ≦ 4)	+++ (+++ = MIC ≦ 4)	++ (++ = 4 < MIC < 12)	+++ (+++ = MIC ≦ 4)	+++ (+++ = MIC ≦ 4)	
